Publication PMC6024615, “Effect of Biliary Drainage on the Toxicity and Toxicokinetics of Amanita exitialis in Beagles” (Toxins, 2018)
*1 amine or outer side, *2 acyl side, *3 side chain or, on linkers, in order; H or OH if unused. Where a SMILES comes first, the peptide text is derived from it. Bridges are numbered along the chain shown (N, C = ends). [ ]: non-standard residue; d: D form. Trp(2-yl) = O=C([C@H](Cc1c([*:3])[nH]c2ccccc12)N[*:1])[*:2]; Leu(4R-OH,5-OH) = C[C@](O)(CO)C[C@H](N)C(=O)O; dAsp(3S-OH) = N[C@@H](C(=O)O)[C@H](O)C(=O)O; cisHyp = O=C(O)[C@@H]1C[C@H](O)CN1

Test: Peptide toxins in the blood / toxicokinetics in beagles with biliary drainage
Assay type: in vivo, beagle dogs
Procedure: The study was approved by National Institute of Occupational Health and Poison Control review board for animal experiments. Twenty-four male beagles (age, 8–10 months; weight, 10 ± 1 kg) were obtained from Beijing Institute of Xieerxin Biology Resource (Beijing, China). They were randomly divided into four groups of six animals each: control, biliary drainage, and 20 and 60 mg/kg with biliary drainage groups. The biliary drainage operation was conducted in all groups barring the control group. The dogs were dressed in homemade underwear, coats, and Elizabeth circles for a week to ensure pre-experimental acclimatization (Figure S8a–c). After determining the baseline values for biochemical indicators, the dogs were fasted for 24 h but received water ad libitum. They were anesthetized by intravenous administration of pentobarbital sodium (3%, 1 mL/kg) during the surgery. A temperature of 38–39 °C was maintained with a warming mat. After skin preservation and sterilization, the abdominal cavity was opened through the central abdomen. The abdomen was explored and blunt dissection of the common bile duct was performed (Figure S8d). The common bile duct and its branches were ligated from the intestinal side. A 7.0-Fr drainage catheter (COOK, Bloomington, IN, USA) was percutaneously inserted into the gallbladder, and a medical drainage bag was connected to the drainage catheter coming out of the abdominal cavity. Each opened layer, including the peritoneum, abdominal wall muscle, and skin, was closed with suture. The operative incision was protected with sterile gauze and a bandage, and the dogs were dressed in homemade underwear, coats, and Elizabeth circles. The drainage bag was placed in the pocket of the coat (Figure S8e). After the anesthetic wore off, the dogs were placed in cages, and food and water were provided ad libitum. The operative incision was sterilized with iodophor twice a day until stitches were removed six days after surgery. The drainage bag was replaced every day. On the eighth day after surgery, the 20 and 60 mg/kg with biliary drainage groups were orally administered a lyophilized powder of Amanita exitialis in starch capsules. In control and bile drainage group, the beagle dogs were fed with empty capsules. Immediately after dosing, the animals were placed in their cages, and food and water were provided ad libitum. Dogs were sacrificed with an overdose of sodium pentobarbital at the end of the experiment. All procedures were performed according to the ethical standards of the National Institutes of Health Guide for Animal Welfare and approved by the Institutional Animal Care and Use Committee (EAWE-2017-005).
Peptide toxins in blood and urine samples were analyzed as described previously. Bile samples from Days 0–1, Days 1–2, Days 2–3, and Days 3–4 were collected and stored in medical drainage bags and the bile volume was recorded. Plasma and urine samples were stored at 2–8 °C until analysis for peptide toxins.
UPLC and MS/MS parameters were as described in our previous study. The limit of detection and limit of quantitation of each toxin in the bile were 0.03 mg/kg and 0.5 mg/kg, respectively.
Toxicokinetic parameters were described in our previous study. Measurement data are reported as mean ± standard deviation values and enumeration data are reported as percentage (%). […] SPSS 22.0 (IBM Corporation, Armonk, NY, USA, 2015) was used for statistical analysis. The criterion for statistical significance was p ≤ 0.05. Except for the biliary drainage operation, the animals and methods in our present study are in accordance with our previously published study. Thus, by directly comparing the data from this study with those from our published studies on Amanita exitialis-exposed beagles without biliary drainage, we can evaluate the impact of biliary drainage on the toxicity and toxicokinetics of Amanita exitialis in beagles.

[1] = 60 mg/kg Amanita exitialis oral, biliary drainage, plasma, mean ± SD

## CC(C)[C@@H]1NC(=O)[C@H](C[C@@](C)(O)CO)NC(=O)[C@@H]2Cc3c([nH]c4ccccc34)SC[C@H](NC(=O)[C@@H]([C@H](O)C(=O)O)NC1=O)C(=O)N1C[C@@H](O)C[C@H]1C(=O)N[C@@H](C)C(=O)N2 [phallacidin] (cyclo(A[Trp(2-yl)][Leu(4R-OH,5-OH)]V[dAsp(3S-OH)]C[cisHyp]); thioether 2-6)
0 h after ingestion, 20 mg/kg with biliary drainage group
  detection rate of peptide toxins in blood: 0%
0 h after ingestion, 60 mg/kg with biliary drainage group
  detection rate of peptide toxins in blood: 0%
60 mg/kg Amanita exitialis oral, biliary drainage, plasma, UPLC-ESI-MS/MS, mean ± SD
  T1/2: 0.62 ± 0.32 ^b,* h
[1]
  AUC (0–∞): 2.08 ± 2.06 ^b,* µg/L × h
  CL/F: 1.1 ± 0.86 ^b,* L/h/kg
  Cmax: 0.85 ± 0.37 ^b,* µg/L
  Dose normalized AUC (0–∞): 60.5 ± 60.2 ^b,*
  Dose normalized Cmax: 24.8 ± 10.8 ^b,*
  MRT (0–∞): 1.95 ± 0.73 ^b,* h
  Tmax: 1.38 ± 0.25 h
0.25 h after ingestion, 20 mg/kg with biliary drainage group
  detection rate of peptide toxins in blood: 0%
0.25 h after ingestion, 60 mg/kg with biliary drainage group
  detection rate of peptide toxins in blood: 33%
0.5 h after ingestion, 20 mg/kg with biliary drainage group
  detection rate of peptide toxins in blood: 0%
0.5 h after ingestion, 60 mg/kg with biliary drainage group
  detection rate of peptide toxins in blood: 33%
1 h after ingestion, 20 mg/kg with biliary drainage group
  detection rate of peptide toxins in blood: 50%
1 h after ingestion, 60 mg/kg with biliary drainage group
  detection rate of peptide toxins in blood: 100%
1.5 h after ingestion, 20 mg/kg with biliary drainage group
  detection rate of peptide toxins in blood: 66%
1.5 h after ingestion, 60 mg/kg with biliary drainage group
  detection rate of peptide toxins in blood: 100%
2 h after ingestion, 20 mg/kg with biliary drainage group
  detection rate of peptide toxins in blood: 33%
2 h after ingestion, 60 mg/kg with biliary drainage group
  detection rate of peptide toxins in blood: 100%
3 h after ingestion, 20 mg/kg with biliary drainage group
  detection rate of peptide toxins in blood: 33%
3 h after ingestion, 60 mg/kg with biliary drainage group
  detection rate of peptide toxins in blood: 50%
4 h after ingestion, 20 mg/kg with biliary drainage group
  detection rate of peptide toxins in blood: 17%
4 h after ingestion, 60 mg/kg with biliary drainage group
  detection rate of peptide toxins in blood: 50%
5 h after ingestion, 20 mg/kg with biliary drainage group
  detection rate of peptide toxins in blood: 0%
5 h after ingestion, 60 mg/kg with biliary drainage group
  detection rate of peptide toxins in blood: 33%
6 h after ingestion, 20 mg/kg with biliary drainage group
  detection rate of peptide toxins in blood: 0%
6 h after ingestion, 60 mg/kg with biliary drainage group
  detection rate of peptide toxins in blood: 17%
8 h after ingestion, 20 mg/kg with biliary drainage group
  detection rate of peptide toxins in blood: 0%
8 h after ingestion, 60 mg/kg with biliary drainage group
  detection rate of peptide toxins in blood: 0%
10 h after ingestion, 20 mg/kg with biliary drainage group
  detection rate of peptide toxins in blood: 0%
10 h after ingestion, 60 mg/kg with biliary drainage group
  detection rate of peptide toxins in blood: 0%
12 h after ingestion, 20 mg/kg with biliary drainage group
  detection rate of peptide toxins in blood: 0%
12 h after ingestion, 60 mg/kg with biliary drainage group
  detection rate of peptide toxins in blood: 0%
24 h after ingestion, 20 mg/kg with biliary drainage group
  detection rate of peptide toxins in blood: 0%
24 h after ingestion, 60 mg/kg with biliary drainage group
  detection rate of peptide toxins in blood: 0%
36 h after ingestion, 20 mg/kg with biliary drainage group
  detection rate of peptide toxins in blood: 0%
36 h after ingestion, 60 mg/kg with biliary drainage group
  detection rate of peptide toxins in blood: 0%
48 h after ingestion, 20 mg/kg with biliary drainage group
  detection rate of peptide toxins in blood: 0%
48 h after ingestion, 60 mg/kg with biliary drainage group
  detection rate of peptide toxins in blood: 0%
Beagles with biliary drainage, oral Amanita exitialis
  time at which toxins were detected in plasma after ingestion: 30 min
male, beagle, dog, 60 mg/kg Amanita exitialis oral, biliary drainage, plasma, mean ± SD, read-out: Vz/F
  Vd/F: 1.77 ± 0.57 L/kg
